Source: patent US20220177538A1, “CO-AGONISTS AT GLP-1 AND GIP RECEPTORS SUITABLE FOR ORAL DELIVERY” (Novo Nordisk A/S, priority 2020, published 2022)
Where two headings read alike, the source gives them in different places. Starred links: 1 amine or outer side, 2 acyl side, 3 side chain; linkers in the order of their positions; H or OH if unused. Non-standard residues stand in square brackets, D forms with d. Residues, ends and D or L forms follow the SMILES beside them. Groups on a side chain read outwards from the residue. *: point of attachment. C18 diacid = O=C(O)CCCCCCCCCCCCCCCCC(=O)*; γGlu = O=C(O)[C@H](CCC(=O)[*:2])N[*:1]; εLys = N[C@@H](CCCCN[*:1])C(=O)[*:2]; Aib = CC(C)(N)C(=O)O

Columns and labels:
human GIP receptor = target: T1, human GIP receptor (Homo sapiens, UniProt P48546); experiment: In vitro functional potency, CRE luciferase reporter, whole BHK cells (hGIPR); assay type: cell-based; details: BHK CRE luc2P hGIPR cells
T1 construct: expressed in transfected cells; host or cells: BHK (parent line BHKTS13), clone BHK CRE luc2P hGIPR
T1 sequence (P48546 22-466): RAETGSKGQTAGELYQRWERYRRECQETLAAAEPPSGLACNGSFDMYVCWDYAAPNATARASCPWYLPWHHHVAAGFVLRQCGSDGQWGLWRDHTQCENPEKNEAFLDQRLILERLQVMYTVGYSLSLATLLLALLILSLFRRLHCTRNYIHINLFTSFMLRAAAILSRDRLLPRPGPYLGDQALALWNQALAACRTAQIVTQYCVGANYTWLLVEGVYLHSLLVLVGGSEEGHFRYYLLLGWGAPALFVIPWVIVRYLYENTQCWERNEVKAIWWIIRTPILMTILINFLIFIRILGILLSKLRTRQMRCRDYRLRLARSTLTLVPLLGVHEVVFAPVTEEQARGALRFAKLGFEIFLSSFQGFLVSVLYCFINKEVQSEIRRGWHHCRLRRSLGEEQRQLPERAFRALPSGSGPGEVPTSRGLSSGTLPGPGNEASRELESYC
Outline: (§1)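 BHK CRE luc2P cells stably expressing hGIPR or hGLP-1R were seeded at 5000 cells/well overnight. They were treated 3 h at 37° C with a 12-point, 3.5-fold compound series in buffer with or without HSA, and luciferase luminescence was read. Values come from log(agonist)-response regression, averaging at least two replicates.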

[1] = Pharmacokinetic study in dogs after oral dosing of tablets with SNAC; assay type: in vivo, Beagle dogs
Outline: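 Male beagle dogs (9-17 kg), fasted, received a single oral tablet with 100-300 mg SNAC and 3-4 mg test substance, groups of 6-8.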

human GLP-1 receptor = human GLP-1 receptor (Homo sapiens, UniProt P43220); experiment: In vitro functional potency, CRE luciferase reporter, whole BHK cells (hGLP-1R); assay type: cell-based; design: expressed in transfected cells; host or cells: BHK (parent line BHKTS13), clone BHK CRE luc2P hGLP-1R; details: BHK CRE luc2P hGLP-1R cells
Chain of human GLP-1 receptor (P43220 24-463): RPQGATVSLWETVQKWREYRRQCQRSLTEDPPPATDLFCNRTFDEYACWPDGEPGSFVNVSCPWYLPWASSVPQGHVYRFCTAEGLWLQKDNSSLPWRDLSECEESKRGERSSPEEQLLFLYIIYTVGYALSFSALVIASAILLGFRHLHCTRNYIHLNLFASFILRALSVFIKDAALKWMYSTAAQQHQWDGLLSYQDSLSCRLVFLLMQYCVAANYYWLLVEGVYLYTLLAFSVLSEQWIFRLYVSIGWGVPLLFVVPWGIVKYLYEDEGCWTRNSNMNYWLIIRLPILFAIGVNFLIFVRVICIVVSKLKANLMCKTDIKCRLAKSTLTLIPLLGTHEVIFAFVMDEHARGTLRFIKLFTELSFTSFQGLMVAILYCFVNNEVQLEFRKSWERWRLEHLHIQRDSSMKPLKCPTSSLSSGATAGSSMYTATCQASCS
Outline: as §1

## CC[C@H](C)[C@H](NC(=O)[C@H](Cc1ccccc1)NC(=O)[C@H](CCC(=O)O)NC(=O)[C@H](CCCNC(=N)N)NC(=O)[C@H](C)NC(=O)[C@H](C)NC(=O)[C@H](CCC(N)=O)NC(=O)[C@H](CCC(=O)O)NC(=O)[C@H](CCC(=O)O)NC(=O)[C@H](CC(C)C)NC(=O)[C@H](CC(C)C)NC(=O)[C@@H](NC(=O)[C@H](CO)NC(=O)[C@H](Cc1ccc(O)cc1)NC(=O)[C@H](CC(=O)O)NC(=O)[C@H](CO)NC(=O)[C@@H](NC(=O)[C@H](Cc1ccccc1)NC(=O)[C@@H](NC(=O)CNC(=O)[C@H](CCC(=O)O)NC(=O)C(C)(C)NC(=O)[C@@H](N)Cc1ccc(O)cc1)[C@@H](C)O)[C@@H](C)O)[C@@H](C)CC)C(=O)N[C@@H](CCC(=O)O)C(=O)N[C@@H](Cc1c[nH]c2ccccc12)C(=O)N[C@@H](CC(C)C)C(=O)N[C@@H](CC(C)C)C(=O)N[C@@H](C)C(=O)NCC(=O)NCC(=O)N1CCC[C@H]1C(=O)N[C@@H](CO)C(=O)N[C@@H](CCCCNC(=O)[C@@H](N)CCCCNC(=O)[C@@H](N)CCCCNC(=O)CC[C@H](NC(=O)CCCCCCCCCCCCCCCCC(=O)O)C(=O)O)C(=O)NCC(=O)N[C@@H](C)C(=O)N1CCC[C@H]1C(=O)N1CCC[C@H]1C(=O)N1CCC[C@H]1C(=O)N[C@@H](CO)C(=O)O [Compound 43] (H-Y[Aib]EGTFTSDYSILLEEQAAREFIEWLLAGGPSK([εLys-εLys-γGlu-C18 diacid])GAPPPS-OH)
Human GIP receptor; 0% HSA, read-out: hGIPR, CRE Luc 0% HSA EC50
  EC50: 0.0056 nM
Human GIP receptor; hGIPR, CRE Luc 1% HSA EC50, 1% HSA
  EC50: 0.445 nM
[1]; male, Beagle, dog, in vivo, po
  Tmax: 1.5 h
  half-life: 131 h
[1]; oral tablet, SNAC 300 mg, test substance 3 mg, Beagle dogs, arithmetic mean
  AUC/Dose: 21.4 kg·h/L
Human GLP-1 receptor; 0% HSA, read-out: hGLP-1R, CRE Luc 0% HSA EC50
  EC50: 0.004 nM
Human GLP-1 receptor; hGLP-1R, CRE Luc 1% HSA EC50, 1% HSA
  EC50: 0.359 nM
